Here are results for one compound from PMC4448982, “LP-925219 maximizes urinary glucose excretion in mice by inhibiting both renal SGLT1 and SGLT2” (Pharmacology Research & Perspectives, 2015).

One assay deals with dog SGLT2 (Canis lupus familiaris, UniProt Q5U9C9). As to the kind of experiment: 14C-AMG uptake assay, cells expressing dog SGLT2. It is filed as cell-based. The note with it: mean ± SD. From the text:
(§1) Methods for generating cell lines expressing mouse, rat, and dog SGLT1 and SGLT2 are published (Powell et al. [2013b], [2014]). Full-length coding sequence of human SGLT1 (NP_000334) and human SGLT2 (NP_003032.1) with an HA-tag at the N-terminus were cloned into the mammalian expression vector pIRESpuro2 (Clontech, Mountain View, CA). HEK293 cells (ATCC, Manassas, VA) were transfected with the pIRESpuro2 vector containing human SGLT1 or SGLT2 and bulk stable cell lines were selected in the presence of 0.5 μg/mL of puromycin.
(§2) Cell lines expressing SGLT1 or SGLT2 were plated into poly-D-lysine-coated 384-well plates, and culture overnight in cell growth medium. Cells were washed, and then incubated in uptake buffer ([…], […] KCl, […] CaCl2, […] MgCl2, […] HEPES/Tris, 1 mg/mL of bovine serum albumin, pH7.4) containing [^14C]α-methylglucopyranoside (^14C-AMG), a nonmetabolizable glucose analog specific for sodium-dependent glucose transporters (Wright and Turk [2004]). The inhibition of SGLT1 or SGLT2 was determined by measuring SGLT1/2-mediated ^14C-AMG uptake in the presence of increasing compound concentrations of LP-925219. […] Standard sigmoidal dose–response model curves were fitted, and the IC50 value was computed as the LP-925219 concentration that inhibited the ^14C-AMG uptake by 50% between baseline and maximum uptake.

Another assay deals with T1, rat SGLT1 (Rattus norvegicus, UniProt P53790).
T1 construct: expressed in transfected cells; host or cells: HEK293 (per abstract)
T1 sequence (P53790 1-665): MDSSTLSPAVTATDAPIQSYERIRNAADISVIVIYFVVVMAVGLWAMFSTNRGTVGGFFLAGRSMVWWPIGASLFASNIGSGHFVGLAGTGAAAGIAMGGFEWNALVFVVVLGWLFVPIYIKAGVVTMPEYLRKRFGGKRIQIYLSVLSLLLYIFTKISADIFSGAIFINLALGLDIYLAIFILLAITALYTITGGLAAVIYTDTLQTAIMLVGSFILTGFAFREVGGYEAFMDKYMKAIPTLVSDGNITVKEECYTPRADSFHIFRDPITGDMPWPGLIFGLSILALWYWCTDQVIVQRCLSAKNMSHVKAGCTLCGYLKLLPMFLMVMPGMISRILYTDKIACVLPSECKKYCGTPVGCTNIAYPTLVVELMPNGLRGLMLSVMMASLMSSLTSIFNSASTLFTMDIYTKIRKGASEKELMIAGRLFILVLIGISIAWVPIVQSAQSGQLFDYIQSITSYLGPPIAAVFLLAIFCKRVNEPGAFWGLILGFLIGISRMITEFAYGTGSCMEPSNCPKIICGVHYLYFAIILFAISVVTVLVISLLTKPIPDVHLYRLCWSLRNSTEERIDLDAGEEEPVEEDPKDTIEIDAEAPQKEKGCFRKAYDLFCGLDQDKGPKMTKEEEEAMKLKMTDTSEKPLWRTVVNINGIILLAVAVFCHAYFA
As to the kind of experiment: 14C-AMG uptake assay, cells expressing rat SGLT1. The following applies: mean ± SD. In kind it is cell-based.
Description: as §1, §2

The next assay deals with T2, dog SGLT1 (Canis lupus familiaris, UniProt A0A8I3PYH5).
T2 sequence (A0A8I3PYH5 1-662): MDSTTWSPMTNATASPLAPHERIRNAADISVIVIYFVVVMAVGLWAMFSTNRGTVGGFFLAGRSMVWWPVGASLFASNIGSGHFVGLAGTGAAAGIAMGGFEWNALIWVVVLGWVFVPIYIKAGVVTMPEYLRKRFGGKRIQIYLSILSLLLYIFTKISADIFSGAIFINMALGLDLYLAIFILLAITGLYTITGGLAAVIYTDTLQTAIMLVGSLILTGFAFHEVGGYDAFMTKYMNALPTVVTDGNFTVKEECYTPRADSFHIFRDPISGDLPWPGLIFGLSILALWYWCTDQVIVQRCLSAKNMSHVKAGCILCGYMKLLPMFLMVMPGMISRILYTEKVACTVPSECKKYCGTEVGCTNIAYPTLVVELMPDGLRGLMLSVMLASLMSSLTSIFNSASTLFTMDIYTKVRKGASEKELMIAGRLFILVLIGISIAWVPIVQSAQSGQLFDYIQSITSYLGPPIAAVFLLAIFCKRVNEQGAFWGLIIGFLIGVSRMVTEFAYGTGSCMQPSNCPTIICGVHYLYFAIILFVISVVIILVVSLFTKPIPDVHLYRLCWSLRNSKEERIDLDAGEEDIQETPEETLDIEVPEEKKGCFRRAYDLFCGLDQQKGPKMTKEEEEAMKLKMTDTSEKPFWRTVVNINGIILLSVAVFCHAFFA
As to the kind of experiment: 14C-AMG uptake assay, cells expressing dog SGLT1. In kind it is cell-based. The following applies: mean ± SD.
Description: as §1, §2

A further assay concerns the target T3, human SGLT2 (Homo sapiens, UniProt P31639).
T3 sequence (P31639 1-672): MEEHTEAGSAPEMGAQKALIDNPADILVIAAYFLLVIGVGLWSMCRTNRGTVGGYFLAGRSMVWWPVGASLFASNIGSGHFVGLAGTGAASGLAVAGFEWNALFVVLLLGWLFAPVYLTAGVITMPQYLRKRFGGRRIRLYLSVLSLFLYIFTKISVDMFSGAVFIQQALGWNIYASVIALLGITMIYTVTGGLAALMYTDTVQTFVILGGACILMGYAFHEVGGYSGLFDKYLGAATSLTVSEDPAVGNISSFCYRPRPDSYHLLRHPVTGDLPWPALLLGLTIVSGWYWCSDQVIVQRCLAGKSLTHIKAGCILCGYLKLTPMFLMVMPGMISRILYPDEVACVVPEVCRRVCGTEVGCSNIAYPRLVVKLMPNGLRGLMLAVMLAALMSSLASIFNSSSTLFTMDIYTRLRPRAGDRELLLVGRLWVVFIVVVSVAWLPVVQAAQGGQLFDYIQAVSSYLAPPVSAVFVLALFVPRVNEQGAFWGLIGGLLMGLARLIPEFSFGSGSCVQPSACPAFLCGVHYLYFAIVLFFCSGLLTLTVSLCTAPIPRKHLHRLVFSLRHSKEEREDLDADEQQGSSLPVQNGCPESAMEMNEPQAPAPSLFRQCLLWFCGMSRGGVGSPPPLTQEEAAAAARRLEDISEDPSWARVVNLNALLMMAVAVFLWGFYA
As to the kind of experiment: Compound washout study, cells expressing human SGLT2.

Chain of dog SGLT2 (Q5U9C9 entry or part of it): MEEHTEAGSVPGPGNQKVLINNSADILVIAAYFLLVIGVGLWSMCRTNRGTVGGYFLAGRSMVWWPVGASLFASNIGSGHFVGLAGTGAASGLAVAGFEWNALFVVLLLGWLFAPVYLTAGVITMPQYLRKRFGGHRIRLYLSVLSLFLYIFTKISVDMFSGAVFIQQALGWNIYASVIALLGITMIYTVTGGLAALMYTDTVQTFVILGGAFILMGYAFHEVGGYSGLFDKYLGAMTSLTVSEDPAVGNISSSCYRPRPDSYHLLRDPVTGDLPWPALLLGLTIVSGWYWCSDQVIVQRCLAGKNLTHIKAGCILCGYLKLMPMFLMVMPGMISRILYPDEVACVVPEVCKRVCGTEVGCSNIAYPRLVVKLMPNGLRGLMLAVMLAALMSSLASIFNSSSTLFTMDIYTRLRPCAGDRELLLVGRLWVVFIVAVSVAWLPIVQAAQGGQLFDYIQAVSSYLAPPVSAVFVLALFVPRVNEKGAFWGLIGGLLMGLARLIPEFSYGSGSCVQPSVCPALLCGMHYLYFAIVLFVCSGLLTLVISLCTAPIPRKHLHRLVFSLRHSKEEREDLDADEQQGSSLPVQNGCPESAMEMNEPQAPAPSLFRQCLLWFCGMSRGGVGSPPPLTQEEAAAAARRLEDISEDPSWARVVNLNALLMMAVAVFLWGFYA
Description for human SGLT2: Cells expressing human SGLT2 were studied using the above protocol. […] Cells expressing human SGLT2 were studied using the above protocol.

With `COc1ccc(Cc2cc([C@@H]3O[C@H](SC)[C@@H](O)[C@H](O)[C@H]3O)ccc2Cl)cc1` [LP-925219], the IC50 is 1 ± 0.3 nM on dog SGLT2; 36.7 ± 7.2 nM against rat SGLT1; 30.2 ± 2 nM on dog SGLT1; 2.2 nM at human SGLT2 (no wash protocol); 6.8 nM on human SGLT2 (washout protocol, 18-20 h recovery after 30 min treatment).

A word on the IC50: it is the concentration that inhibits the measured activity by half. A higher IC50 goes with weaker potency.
